Like-named read-outs stand apart in the source and are kept apart here.
How the values were obtained:
[1] = test system: HCT116-MTAPdel; assay: 2D antiproliferative assay (CTG cell viability), MTAP-deficient cells; format: cell-based; settings: for IC50: Homo sapiens, HCT-116, HCT116 MTAP-deficient cells, 7-10 days, CTG, read-out: HCT116-MTAPdel/IC50/nM; for HCT116WT IMTAPdel selectivity: ratio IC50 wild type / MTAPdel, antiproliferation
Protocol: (§1) HCT116 wild-type and MTAP-deficient cells were cultured in McCoy's 5A medium containing 10% FBS and 1% penicillin-streptomycin, and cultured in a 37°C, 5% CO2 constant temperature incubator. 40 µL of cell suspension was introduced into each well of a 384-well microplate. 40 nL of different concentrations of test compounds were added to each well using an Echo, before culturing in a 37°C, 5% CO2 constant temperature incubator for 7-10 days. 40 µL of CTG solution (Promega, Cat No. G7573) was added to each well and incubated in a 37°C, 5% CO2 constant temperature incubator for 30 minutes in the dark.

[2] = test system: HCT116-MTAPwt; assay: 2D antiproliferative assay (CTG cell viability), wild-type cells; format: cell-based; settings: Homo sapiens, HCT-116, 7-10 days
Protocol: as §1

[3] = Liver microsomal stability assay, human
Protocol: (§5) The compounds to be tested were co-incubated with liver microsomes of different species with or without the addition of NADPH. The final concentration of the test compounds in the test system was 1 µM, the final concentration of NADPH was 1 mM, and the final concentration of liver microsomes was 0.5 mg/mL.

[4] = test system: SDMA/HCT116-MTAPdel; assay: In-cell arginine symmetric dimethylation inhibition (In-cell western, ICW), MTAP-deficient cells; format: cell-based; settings: for IC50: Homo sapiens, HCT-116, HCT116 MTAP-deficient cells, 96 hours
Protocol: (§2) 60 nL of different concentrations of compounds were added to each well using an Echo, and incubated at 37°C, 5% CO2 for 96 hours.
(§3) Next, 50 µL of 4% paraformaldehyde solution was added to each well and incubated at room temperature for 20 minutes to fix the cells. The solution in the wells was removed, and each well was rinsed four times with PBS solution containing 0.1% Tween 20 (PBST). To each well was then added 30 µL of ice-cold methanol. After standing at -20°C for 10 minutes, the methanol was removed and the wells washed four times with PBST. 30 µL of Odyssey blocking solution containing 0.5% Tween 20 was added to each well and shaken for 2 hours at room temperature. The blocking solution was removed and 30 µL of primary antibody (Symmetric Di-Methyl Arginine Motif [sdma-RG] MultiMab™ Rabbit mAb mix) diluted at 1:500 in Odyssey blocking solution containing 0.5% Tween 20 was added to each well. The plates were incubated overnight at 4°C, before removing the primary antibody and rinsing each well four times with PBST, 5 minutes per rinse. Secondary antibody (goat anti-rabbit IRDye 800CW, 1:800) and nuclear stain (DRAQ5, 1:10000) diluted in Odyssey blocking solution containing 0.5% Tween 20 were then added to each well before incubating at room temperature for 2 hours in the dark. The secondary antibody was removed, and the wells rinsed four times with PBST.
(§4) The sdme-RG and DRAQ5 signals were scanned at 800 nm and 700 nm respectively on a Li-Cor Odyssey instrument and the signal values recorded. The sdme-RG/DRAQ5 ratio was used to calculate the percentage inhibition of arginine symmetric dimethylation (SDMA), and the IC50 value calculated using GraphPad Prism software.

[5] = test system: SDMA/HCT116-MTAPwt; assay: In-cell arginine symmetric dimethylation inhibition (In-cell western, ICW), wild-type cells; format: cell-based; settings: Homo sapiens, HCT-116, 96 hours
Protocol: as §2, §3, §4

[6] = Liver microsomal stability assay, mouse; format: in vitro ADME; settings: mouse liver microsomes 0.5 mg/mL, compound 1 µM, NADPH 1 mM, 60 minute
Protocol: as §5

[7] = Mouse pharmacokinetics testing; format: in vivo, CD1 female mice
Protocol: CD1 female mice were used as test animals and administered the compounds orally/intravenously (oral dosage was 10 mg/kg and intravenous dosage was 2 mg/kg). Test protocol: Each oral and intravenous group consisted of three mice. […] Plasma drug concentrations after oral and intravenous administration were determined by LC/MS/MS, and the collected data analyzed using AB Sciex QTRAP 6500 software.

[8] = Membrane permeability: Caco-2 assay; format: in vitro ADME; settings: human; for Papp A→B / Papp B→A: Caco-2, apical pH 6.5, basolateral pH 7.4
Protocol: The membrane permeability of the molecules of the invention was evaluated. […] Efflux Ratio = Papp(B−A) /Papp(A−B) [formula]

[9] = female, CD1, mouse, in vivo, iv, 2 mg/kg
[10] = female, CD1, mouse, in vivo, po, 10 mg/kg

SMILES	IC50 [1] [nM]	IC50 [2] [nM]	HCT116WT IMTAPdel selectivity [1]	other results
Cc1cc(NC(=O)C(=O)N2C[C@@H](C)CC[C@@H]2c2ccc3scnc3c2)cnc1N [TNG908, reference compound]	43	1190	27	IC50 [4]: 2.6 nM; Selectivity wt/MTAPdel ([4]; ratio SDMA IC50 wt / MTAPdel): 850; IC50 [5]: 2210 nM
CC1CCC(c2ccc3sc(C4CCN(C)CC4)nc3c2)N(C(=O)C(=O)Nc2cnc(N)c3c2cnn3C)C1 (racemic) [Compound P5]	4	36	9	CLint scaled at 1 h, 1 µM ([3]; liver microsomes): 10.7 mL/min/kg
C[C@H]1CC[C@H](c2ccc3scnc3c2)N(C(=O)C(=O)Nc2cnc(N)c3c2cnn3C)C1 [Compound P3b]	2	275		IC50 [4]: 0.6 nM; IC50 [5]: 578 nM; F ([7]; PO (10 mg/kg) vs IV (2 mg/kg), CD1 female mice): 31%; AUC(0-t) ([7]; mouse, IV (2 mg/kg), CD1 female mice, plasma, read-out: AUC0-24): 383 ng·h/mL; C0 ([7]; mouse, IV (2 mg/kg), CD1 female mice, plasma, read-out: C0): 1650 ng/mL; clearance ([7]; mouse, IV (2 mg/kg), CD1 female mice, plasma, read-out: Cl): 86.6 mL/min/kg; half-life ([7]; mouse, IV (2 mg/kg), CD1 female mice, plasma, read-out: T1/2 (converted)): 19.2 min; AUC(0-t) ([7]; mouse, PO (10 mg/kg), CD1 female mice, plasma, read-out: AUC0-24): 586 ng·h/mL; Cmax ([7]; mouse, PO (10 mg/kg), CD1 female mice, plasma, read-out: Cmax): 883 ng/mL; half-life ([7]; mouse, PO (10 mg/kg), CD1 female mice, plasma, read-out: T1/2 (converted)): 66 min; Tmax ([7]; mouse, PO (10 mg/kg), CD1 female mice, plasma, read-out: Tmax): 15 min
CN(C(=O)C(=O)Nc1cnc(N)c2c1cnn2C)C1COc2cc(C(F)(F)F)ccc21 (stereo not shown) [Compound P2]	32	2680	84	efflux ratio ([8]; Caco-2, Efflux Ratio = Papp(B-A)/Papp(A-B)): 1.5; Papp A→B [8]: 13.5 ×10⁻⁶ cm/s; Papp B→A [8]: 20.5 ×10⁻⁶ cm/s; CLint scaled at 1 µM ([3]; liver microsomes): 13 mL/min/kg
C[C@@H]1CC[C@@H](c2ccc3scnc3c2)N(C(=O)C(=O)Nc2cnc(N)c3c2cnn3C)C1 (racemic) [Compound P3]	13	827		Papp A→B [8]: 2.66 ×10⁻⁶ cm/s; Papp B→A [8]: 34.2 ×10⁻⁶ cm/s; CLint scaled at 1 h, 1 µM ([3]; liver microsomes): 23.9 mL/min/kg
C[C@H](c1ncccn1)N(Cc1ccc(C(F)(F)F)cn1)C(=O)C(=O)Nc1cnc(N)c2c1cnn2C [Compound P1]	9	196	22	CLint scaled at 1 h, 1 µM [6]: 177 mL/min/kg; CLint scaled at 1 h, 1 µM ([3]; microsomes): 18 mL/min/kg
Cc1cc2cc(C(=O)N(Cc3ccc(C(F)(F)F)cn3)[C@H](C)c3ncccn3)ccc2nc1N [AM9747, reference compound]	7	237		IC50 [4]: 0.6 nM; IC50 [5]: 332 nM
CC(=O)N1CCC(Nc2cc(C(=O)NC[C@H](O)CN3CCc4ccccc4C3)ncn2)CC1 [GSK3326595, reference compound]	17	72	4	

Now from value to compound, other results behind:

IC50 [1] [nM]	IC50 [2] [nM]	SMILES	HCT116WT IMTAPdel selectivity [1]	other results
4	1230	CN(C(=O)C(=O)Nc1cnc(N)c2c1cnn2C)[C@@H]1COCc2nc(-c3cncc(Cl)c3)ccc21 [Compound H2b]	308	CLint scaled at 1 µM ([3]; liver microsomes): 21.3 mL/min/kg
6	1080	CCN(C(=O)C(=O)Nc1cnc(N)c2c1cnn2C)[C@@H]1COc2cc(C(F)(F)F)ccc21 [Compound P19a]	181	CLint scaled at 1 h, 1 µM [6]: 110 mL/min/kg; F ([7]; mouse, in vivo): 59%; AUC(0-t) at 24 h ([7]; mouse, in vivo, iv, 2 mg/kg): 1480 ng·h/mL; C0 ([7]; mouse, in vivo, iv, 2 mg/kg): 1210 ng/mL; clearance ([7]; mouse, in vivo, iv, 2 mg/kg): 21.5 mL/min/kg; half-life ([7]; mouse, in vivo, iv, 2 mg/kg): 126 min; AUC(0-t) at 24 h ([7]; mouse, in vivo, po, 10 mg/kg): 4390 ng·h/mL; Cmax ([7]; mouse, in vivo, po, 10 mg/kg): 1100 ng/mL; Tmax ([7]; mouse, in vivo, po, 10 mg/kg): 30 min; half-life ([7]; mouse, in vivo, po, 10 mg/kg): 408 min; CLint scaled at 1 h, 1 µM ([3]; microsomes): 20 mL/min/kg
6	203	C[C@H]1CC[C@H](c2ccc3sc(CCN(C)C)nc3c2)N(C(=O)C(=O)Nc2cnc(N)c3c2cnn3C)C1 (racemic) [Compound P15]	34	CLint scaled at 1 h, 1 µM ([3]; microsomes): 9.7 mL/min/kg
24	1420	CN(C(=O)C(=O)Nc1cnc(N)c2c1cnn2C)C1COCc2nc(C(F)(F)F)ccc21 (stereo not shown) [Compound P9]	59	CLint scaled at 1 µM ([3]; liver microsomes): 5 mL/min/kg
13	3140	CN(C(=O)C(=O)Nc1cnc(N)c2c1cnn2C)C1COc2cc(OC(F)(F)F)ccc21 (stereo not shown) [Compound P30]	241	F ([7]; female, CD1, mouse, in vivo): 74%; AUC(0-t) [7, 9]: 1410 ng·h/mL; C0 [7, 9]: 1070 ng/mL; clearance [7, 9]: 23 mL/min/kg; half-life [7, 9]: 120 min; AUC(0-t) [7, 10]: 5150 ng·h/mL; Cmax [7, 10]: 1850 ng/mL; Tmax [7, 10]: 15 min; half-life [7, 10]: 90 min; CLint scaled at 1 µM ([3]; liver microsomes): 9.4 mL/min/kg
15	855	C[C@H]1COC[C@@H](c2ccc(C(F)(F)F)cn2)N1C(=O)C(=O)Nc1cnc(N)c2c1cnn2C (racemic) [Compound P11]	57	CLint scaled at 1 h, 1 µM ([3]; microsomes): 16.5 mL/min/kg
17	1710	[2H]C([2H])([2H])n1ncc2c(NC(=O)C(=O)N(C)[C@@H]3COc4cc(C(F)(F)F)ccc43)cnc(N)c21 [Compound P23]	101	
28	6020	Cn1ncc2c(NC(=O)C(=O)N(CC(F)(F)F)[C@@H]3COc4cc(C(F)(F)F)ccc43)cnc(N)c21 [Compound P20a]	215	CLint scaled at 1 µM ([3]; liver microsomes): 19.2 mL/min/kg
10	800	Cc1nc2cc(C3CCC(C)CN3C(=O)C(=O)Nc3cnc(N)c4c3cnn4C)ccc2s1 (racemic) [Compound P10]	80	
12	4550	[2H]C([2H])([2H])n1ncc2c(NC(=O)C(=O)N(C)[C@@H]3COCc4nc(C(F)(F)F)ccc43)cnc(N)c21 [Compound P26]	380	
883	> 10000	Cn1ncc2c(NC(=O)C(=O)N(CC(F)(F)F)[C@H]3COc4cc(C(F)(F)F)ccc43)cnc(N)c21 [Compound P20b]	11	

Source: EP4653435A1, “PRMT5-MTA INHIBITOR” (Suzhou Puhe Biopharma Co., Ltd., priority 2023, dated 2024)
